Series [1] deals with BCR-4. As to the kind of experiment: BCR-4 PNA microinjection: BCR-4 expression by RT-qPCR. To be noted: after 7 days. In kind it is in vivo, Acyrthosiphon pisum. The procedure: (§1) Microinjection was performed using NanoJet III Auto-Nanoliter Injector with an in-house pulled borosilicate needle (Drummond Scientific; Cat#3-000-203-G/XL). Aphids were transferred using a paint brush to a tubing system connected to vacuum which held them in place during the injection. The injection site was at the ventral thorax of the aphid. The injection solutions were water (negative control) or 321 ng/μl of BCR-4 PNA in water. The injection volume was 20 nl for adult (4th and 5th instar) aphids at a rate of 2 nl/sec. Each treatment group had approximately the same number of individuals injected from each of the collection plants. After injection, aphids were released into a petri dish onto fava bean leaves that had stems in an Eppendorf tube filled with 1 ml water. Survival and fecundity were monitored over the course of the experiment.
Aphids LSR-1 (which harbor only Buchnera), A. pisum were grown on fava bean plants (Vroma vicia faba from Johnny's Selected Seeds) in a climate-controlled incubator (16 h light/8 h dark photoperiod; 60±5% RH; 25±2° C.). […]
After 7 days of treatment, RNA was extracted from the remaining aphids in each treatment group. […] RNA concentrations were measured using a nanodrop nucleic acid quantification. BCR-4 relative expression was measured by RT-qPCR. […] RT-qPCR data was analyzed using analytic (Thermo Fisher Scientific, QuantStudio Design and Analysis) software.

For another series, the system named is Aphids LSR-1, A. pisum. Description: BCR-4 PNA microinjection: aphid survival and fecundity. Type of series: in vivo, Acyrthosiphon pisum. The procedure: as §1
Aphids LSR-1 (which harbor only Buchnera), A. pisum were grown on fava bean plants (Vroma vicia faba from Johnny's Selected Seeds) in a climate-controlled incubator (16 h light/8 h dark photoperiod; 60±5% RH; 25±2° C.). Prior to being used for aphid rearing, fava bean plants were grown in potting soil at 24° C. with 16 h of light and 8 h of darkness. To limit maternal effects or health differences between plants, 5-10 adults from different plants were distributed among 10 two-week-old plants, and allowed to multiply to high density for 5-7 days. For experiments, fourth and fifth instar aphids were collected from healthy plants and divided into two treatment groups: 1) water (negative control) or 2) BCR-4 PNA in water.

The subject of series [2] is Aphids (LSR-1 strain, Acyrthosiphon pisum). Description: BCR-4 PNA leaf perfusion: aphid survival and development. Type of series: in vivo. The settings on record: for effect on aphid development / effect on aphid mortality: leaf perfusion, vs water. How it is done: Aphids (LSR-1 strain, Acyrthosiphon pisum) were grown on fava bean plants (Vroma vicia faba from Johnny's Selected Seeds) in a climate-controlled incubator (16 h light/8 h dark photoperiod; 60±5% RH; 25±2° C.). Prior to being used for aphid rearing, fava bean plants were grown in potting soil at 24° C. with 16 h of light and 8 h of darkness. To limit maternal effects or health differences between plants, 5-10 adults from different plants were distributed among 10 two-week-old plants and allowed to multiply to high density for 5-7 days. For experiments, first and second instar aphids were collected from healthy plants and divided into two different treatment groups: 1) those allowed to feed on leaves perfused with water, and, 2) those allowed to feed on leaves perfused with a BCR-4 PNA solution in water.
For each leaf perfusion, approximately 1 ml of water (negative control) or a 1 uM BCR-4 PNA solution was injected into a fava bean leaf. The stem of the leaf was then placed in a 1.5 ml Eppendorf that was sealed with parafilm. The leaf stem was then placed into a deep petri dish (Fisher Scientific, Cat# FB0875711) and aphids were applied to the leaves of the plant and allowed to feed. Old leaves were replaced with new, freshly injected leaves every 2-3 days throughout the experiment. For each treatment, 60 aphids were placed onto each leaf. Aphids were monitored daily for survival and dead aphids were removed when they were discovered. In addition, the developmental stage (1st, 2nd, 3rd, 4th, and 5th instar) was determined daily throughout the experiment.

The next series deals with Buchnera. Description: BCR-4 PNA leaf perfusion: Buchnera/aphid copies by qPCR. To be noted: for effect on Buchnera titers: vs water. In kind it is in vivo. How it is done: After 5 and 6 days of treatment, DNA was extracted from dead aphids from each treatment group. Briefly, the aphid body surface was sterilized by dipping the aphid into a 6% bleach solution for approximately 5 seconds. Aphids were then rinsed in sterile water and DNA was extracted from each individual aphid using a DNA extraction kit (Qiagen, DNeasy kit) according to manufacturer's instructions. DNA concentration was measured using a nanodrop nucleic acid quantification, and Buchnera and aphid DNA copy numbers were measured by qPCR. The primers used for Buchnera were Buch_groES_18F ([…]; SEQ ID NO: 101) and Buch_groES_98R ([…]; SEQ ID NO: 102) (Chong and Moran, 2016 PNAS). The primers used for aphid were ApEF1a 107F ([…]; SEQ ID NO: 103) and ApEF1a 246R ([…]; SEQ ID NO: 104) (Chong and Moran, 2016 PNAS). qPCR was performed using a qPCR amplification ramp of 1.6 degrees C./s and the following conditions: 1) 95° C. for 10 minutes, 2) 95° C. for 15 seconds, 3) 55° C. for 30 seconds, 4) repeat steps 2-3 40×, 5) 95° C. for 15 seconds, 6) 55° C. for 1 minute, 7) ramp change to 0.15 degrees C./s, 8) 95° C. for 1 second. qPCR data was analyzed using analytic (Thermo Fisher Scientific, QuantStudio Design and Analysis) software.

Series [3] relates to BCR-4. As to the kind of experiment: BCR-4 PNA leaf perfusion: BCR-4 expression by RT-qPCR. Type of series: in vivo, Acyrthosiphon pisum. To be noted: for effect on BCR-4 expression: day 7, vs water. The procedure: After 7 days of treatment, RNA was extracted from the remaining aphids in each treatment group. Briefly, the aphid body surface was sterilized by dipping the aphid into a 6% bleach solution for approximately 5 seconds. Aphids were then rinsed in sterile water and total RNA was extracted from each individual aphid using the RNA extraction kit (Qiagen miRNeasy kit) according to manufacturer's instructions. RNA concentrations were measured using a nanodrop nucleic acid quantification. BCR-4 relative expression was measured by RT-qPCR. The primers used were ApBCR-4F ([…]; SEQ ID NO: 107) and ApBCR-4R ([…]; SEQ ID NO: 108). The internal reference gene primers were for Actin (housekeeping gene). The forward sequence was […]; SEQ ID NO: 109 and the reverse sequence was […]; SEQ ID NO: 110. RT-qPCR was performed using a qPCR amplification ramp of 1.6 degrees C./s and the following conditions: 1) 48° C. for 30 min, 2) 95° C. for 10 minutes, 3) 95° C. for 15 seconds, 4) 60° C. for 1 minute, 5) repeat steps 3-4 40×, 6) 95° C. for 15 seconds, 7) 60° C. for 1 minute, 8) ramp change to 0.15 degrees C./s, 9) 95° C. for 1 second. RT-qPCR data was analyzed using analytic (Thermo Fisher Scientific, QuantStudio Design and Analysis) software.
At 7 post-treatment, RNA was extracted from live aphids and RT-pPCR was done as described above (see Microinjection Delivery Experimental Design) to quantify expression of BCR-4.

In series [4] the test system is its target bacterial strains. The settings on record: cited from earlier work.
The test system of a further series is Rhopalosiphum maidis. As to the kind of experiment: Bcr1 dsRNA in artificial diet: aphid survival. Type of series: in vivo. To be noted: 0.5 to 5 μg/ml in artificial diet; paper example. The procedure:
dsRNA solutions are formulated with 0 (negative control), 0.5, 1, or 5 μg/ml of Bcr1 dsRNA from Example 2 in 10 mL of TE buffer with 0.5% sucrose and essential amino acids.
(§2) To prepare for the treatment, aphids are grown in a lab environment and medium. In a climate-controlled room (16 h light photoperiod; 60±5% RH; 20±2° C.), fava bean plants are grown in a mixture of vermiculite and perlite and are infested with aphids. To limit maternal effects or health differences between plants, 5-10 adults from different plants are distributed among 10 two-week-old plants, and allowed to multiply to high density for 5-7 days. For experiments, second and third instar aphids are collected from healthy plants and divided into treatments so that each treatment receives approximately the same number of individuals from each of the collection plants.
(§3) Wells of a 96-well plate are filled with 200 μl of artificial aphid diet (Febvay et al., Canadian Journal of Zoology 66(11):2449-2453, 1988) and the plate is covered with parafilm to make a feeding sachet. […]

The test system of the next series is Myzus persicae. As to the kind of experiment: Bcr1 dsRNA in artificial diet: aphid survival. In kind it is in vivo. The settings on record: 0.5 to 5 μg/ml in artificial diet; paper example. How it is done: dsRNA solutions are formulated with 0 (negative control), 0.5, 1, or 5 μg/mL of Bcr1 dsRNA from Example 7 in 10 mL of TE buffer with 0.5% sucrose and essential amino acids.
as §2, with “(16 hr” for “(16 h”, “C.),” for “C.), fava bean”
as §3

Where [5] appears, read: vs water, listed as PNA to BCR-4.

Data on three molecules can be found in patent US20190246647A1, “COMPOSITIONS AND RELATED METHODS FOR MODULATING ENDOSYMBIONTS” (Flagship Pioneering Innovations V, Inc., priority 2017, published 2019).

“Also recorded” adds a separate entry of the source.

With “YGRKKRRQRRR-CGTACAATAATCTCATGG (PNA against BCR-4; UniProt P04608 47-57, looked up, fragment) [BCR-4 PNA, peptide nucleic acid (PNA) to BCR-4 fused to a cell penetrating peptide (Tat)]”, the “expression of BCR-4, water-injected fold higher than BCR-4 PNA-injected” value with BCR-4 [1] (microinjection 20 nl of 321 ng/μl, 4th and 5th instar) was “approximately 2 fold”. For the same molecule, the “effect on BCR-4 expression” value in the series on BCR-4 [1] (microinjection, vs water) is reported as “knockdown of BCR-4; also recorded: reduced BCR-4 expression”; with BCR-4 [3], “reduction of BCR-4 expression”; in the series on BCR-4 [3] (listed as PNA to BCR-4), “knocked down BCR-4 expression”. For the same molecule, in the series on Aphids LSR-1, A. pisum (at 3 and 7 days post-treatment), the “offspring produced per adult” value was 4 offspring/adult. Also, the “effect on aphid fecundity” value in the series on Aphids LSR-1, A. pisum (vs water) is given as “slight decrease in aphid fecundity”; with Aphids LSR-1, A. pisum (setting [5]), “decreased fecundity”. In the series on Aphids LSR-1, A. pisum (setting [5]), the “effect on aphid survival” value is reported as “slight decrease in survival; also recorded: decrease in insect survival”. The “aphids in the 3rd instar stage” value in series [2] (leaf perfusion 1 uM, day 2 post-treatment, first and second instar aphids) is 8%. Further, the aphids alive in series [2] (leaf perfusion 1 uM, day 7) turned out to be 30%. Besides, the entries for the “effect on aphid development” value in series [2] and in series [2] (listed as PNA to BCR-4) were “delayed aphid development” and “slowed aphid development”, respectively. Moreover, the “effect on aphid mortality” value is reported as “increased aphid death” in series [2] and “increased aphid mortality” in series [2] (listed as PNA to BCR-4). Besides, in the series with Buchnera (dead aphids collected 5 and 6 days post-treatment), the “mean ratio Buchnera/aphid copies” value is “approximately 57”. For the same molecule, the “effect on Buchnera titers” value is on record as “increased Buchnera titers” in the series with Buchnera and “misbalance in Buchnera titers” in the series with Buchnera (listed as PNA to BCR-4). In the series on BCR-4 [3] (living aphids after 7 days), the “median transcript levels of BCR-4, fold lower than water” value is “approximately 3 fold”.

As to nisin, the “concentration showing antimicrobial activity” value in series [4] is reported as “single-digit nanomolar concentration”.

B1: Bcr1 dsRNA: dsRNA hairpin targeting Bcr1 gene (ACYPI32128), SEQ ID NO: 93 (nucleic acid, listed as Acyrthosiphon pisum)
chain: AUGAAACUGCUGCAUGGCUUUCUGAUUAUUAUGCUGACCAUGCAUCUGAGCAUUCAGUAUGCGUAUGGCGGCCCGUUUCUGACCAAAUAUCUGUGCGAUCGCGUGUGCCAUAAACUGUGCGGCGAUGAAUUUGUGUGCAGCUGCAUUCAGUAUAAAAGCCUGAAAGGCCUGUGGUUUCCGCAUUGCCCGACCGGCAAAGCGAGCGUGGUGCUGCAUAACUUUCUGACCAGCCCGUUUUUUUUUUCGGGCUGGUCAGAAAGUUAUGCAGCACCACGCUCGCUUUGCCGGUCGGGCAAUGCGGAAACCACAGGCCUUUCAGGCUUUUAUACUGAAUGCAGCUGCACACAAAUUCAUCGCCGCACAGUUUAUGGCACACGCGAUCGCACAGAUAUUUGGUCAGAAACGGGCCGCCAUACGCAUACUGAAUGCUCAGAUGCAUGGUCAGCAUAAUAAUCAGAAAGCCAUGCAGCAGUUUCAU
Take B1: the “survival rate of aphids vs control” value in the series on Rhopalosiphum maidis and in the series with Myzus persicae was “decreased” in each case.
